Measured values published in US12162913B2 (priority 2016, dated 2024).
“Also recorded” adds a separate entry of the source. Like-named read-outs stand apart in the source and are kept apart here.

Legend:
[1] = biological target: R. microplus nAChRα6 (Rma6) homopentamers (Rhipicephalus microplus, UniProt A0A223PM23); experiment: Two-electrode voltage clamp on Xenopus oocytes expressing Rmα6 homopentamers; format: cell-based
Experimental: (§1) The plasmids containing the sequences of choice were linearized using BeuI (Spel) FastDigest (ThermoFisher) restriction enzyme for 30 min at 37°, and an aliquot run on an agarose gel to check for complete linearization. The plasmid DNA was phenol:chloroform purified and ethanol precipitated. The pellet was re-suspended in deionized water. Capped RNA was synthesized using mMessage mMachine T7 kit from 1 μg linearized plasmid DNA, the sample phenol:chloroform purified and isopropanol precipitated. The pellet was re-suspended in deionized water to a concentration of 500 ng/μl, analysed on an agarose gel for integrity and stored at −80° C. until further use.
(§2) Xenopus laevis oocytes were purchased as whole ovaries from the European Xenopus Resource Centre (University of Portsmouth), delivered in less than 24 h in Modified Barth's Saline (MBS) on wet ice. Upon arrival, the oocytes were treated with 2 mg/ml collagenase type I (Sigma-Aldrich) in calcium-free Barth's solution (NaCl 88 mM, Tris-HCl 15 mM, NaHCO32.4 mM, MgCl2 0.82 mM, KCl 1 mM, pH 7.5) for 30 min at room temperature. The separated oocytes were rinsed thoroughly in calcium-free Barth's solution, manually de-folliculated and injected using a Drummond microinjector with 25 ng/oocyte capped RNA. The oocytes were incubated at 18° C. in calcium-containing ([…]) Barth's solution supplemented with 4 μg/ml Kanamycin, 50 μg/ml Tetracycline, 100 U/ml Penicillin and 100 μg/ml Streptomycin. Two-electrode voltage clamp recordings were performed after 3-5 days using an OC-725C oocyte clamp (Warner instruments) with the membrane potential clamped at −60 mV. The oocytes were continuously perfused with frog Ringer's solution (NaCl 115 mM, KCl 2.5 mM, CaCl2) 1.8 mM and HEPES 10 mM) and the dilutions of ligands prepared in Ringer's saline applied using a VC-8 multi-valve perfusion system (Warner Instruments). Following ligand application, the current required to maintain the membrane potential at −60 mV was measured and used for subsequent data analysis.
(§3) Two-electrode voltage clamp electrophysiology data acquisition was done using LabScribe software (iWorks Systems) and the data transferred to GraphPad Prism (GraphPad Software) for traces analysis and dose-response curve fitting.

[2] = biological target: R. microplus nAChRα5 (Rmα5) homopentamers (Rhipicephalus microplus, UniProt A0A223PM17, I539V); format: cell-based
Experimental: as §1, §2, §3

Sequence of R. microplus nAChRα6 (Rma6) homopentamers (A0A223PM23 entry or part of it): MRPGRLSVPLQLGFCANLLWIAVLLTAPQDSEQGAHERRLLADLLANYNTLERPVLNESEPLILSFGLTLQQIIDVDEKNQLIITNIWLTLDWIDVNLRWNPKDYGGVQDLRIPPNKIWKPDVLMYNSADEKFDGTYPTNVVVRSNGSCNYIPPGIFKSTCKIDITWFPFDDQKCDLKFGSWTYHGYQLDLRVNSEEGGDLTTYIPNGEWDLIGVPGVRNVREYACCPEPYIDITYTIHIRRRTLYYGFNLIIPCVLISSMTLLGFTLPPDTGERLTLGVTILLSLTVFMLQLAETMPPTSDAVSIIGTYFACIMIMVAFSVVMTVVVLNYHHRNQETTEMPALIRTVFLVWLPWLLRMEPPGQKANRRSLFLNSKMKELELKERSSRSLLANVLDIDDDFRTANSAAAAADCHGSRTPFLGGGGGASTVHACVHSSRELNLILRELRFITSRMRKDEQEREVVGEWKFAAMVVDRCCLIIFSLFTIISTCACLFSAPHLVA
Sequence of R. microplus nAChRα5 (Rmα5) homopentamers (A0A223PM17 entry or part of it I539V): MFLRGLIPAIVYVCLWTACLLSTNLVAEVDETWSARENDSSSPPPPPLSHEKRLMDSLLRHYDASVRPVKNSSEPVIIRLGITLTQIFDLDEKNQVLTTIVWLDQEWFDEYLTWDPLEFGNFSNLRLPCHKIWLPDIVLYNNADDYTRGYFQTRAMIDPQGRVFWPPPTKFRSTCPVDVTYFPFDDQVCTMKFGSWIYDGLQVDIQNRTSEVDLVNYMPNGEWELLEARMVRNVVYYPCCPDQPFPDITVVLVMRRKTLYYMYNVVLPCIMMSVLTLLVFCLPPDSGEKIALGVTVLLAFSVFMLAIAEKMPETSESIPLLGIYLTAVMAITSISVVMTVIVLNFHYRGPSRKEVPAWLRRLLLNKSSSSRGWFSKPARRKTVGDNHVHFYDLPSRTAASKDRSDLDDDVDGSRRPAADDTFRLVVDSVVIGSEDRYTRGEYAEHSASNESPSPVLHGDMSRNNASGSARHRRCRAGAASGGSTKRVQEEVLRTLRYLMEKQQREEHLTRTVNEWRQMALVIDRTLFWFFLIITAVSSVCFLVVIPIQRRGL

Molecule: CC(=O)OCC[N+](C)(C)C [ACh, acetylcholine]
- EC50 ([1]; membrane potential clamped at −60 mV, dose-response curve, read-out: EC50 (activation of Rma6 receptor)): 1.97 ± 1.2 µM

Molecule: O=[N+]([O-])NC1=NCCN1Cc1ccc(Cl)nc1 [Imidacloprid, imidacloprid]
- action on Rma6 receptor [1]: partial agonist
- character of responses on Rma6 [1]: small, non-desensitizing responses
- action on Rma6 receptor ([1]; listed as imidacloprid): induced responses

Molecule: spinosad
- EC50 of spinosad lower than ACh EC50 (fold) ([2]; Rmα5 receptor): over 10 times
- action on Rmα5 receptor ([2]; Xenopus oocytes): higher efficacy than ACh; also recorded: agonist
- character of responses on Rmα5 ([2]; Xenopus oocytes, ACh 300 μM, spinosad 30 μM representative traces): large and also non-desensitizing
- time to response plateau ([2]; during application): around 30 s
- time to first signs of depolarization ([2]; during perfusion): about 15 s
- action on Rma6 receptor [1]: does not directly activate; also recorded: type II allosteric modulator
